In US9585879B2, “Heterocyclic GSK-3 allosteric modulators” (Consejo Superior de Investigaciones Cientificas (CSIC), priority 2011, dated 2017):
Where two headings read alike, the source gives them in different places.

Experiments:
[1] = biological target: recombinant human GSK3 enzyme (GSK-3β); type: biochemical; details: Kinase-Glo, 1 μM ATP, 25 μM substrate, 30 min at 30 °C
Description: Measurement of the Inhibition of GSK-3β
The enzyme inhibition assays were performed using the luminometric methodology of kinase-Glo®. The recombinant human GSK3 enzyme (catalogue no. 14-306) was acquired from Upstate (Dundee, UK). The prephosphorylated polypeptide was synthesised by American Peptide Inc. (Sunnyvale, Calif.). The luminescent kinase kit (catalogue no. V6711) was obtained from Promega. The ATP and the other reagents were purchased from Sigma-Aldrich (St. Louis, Mo.).
The assays were performed in buffer using 96-well plates. 10µl of the compound to be assayed (dissolved in DMSO at a concentration of 1 mM, and, in turn, dissolved in buffer to the concentration necessary for the experiment) and 10µl (20 ng) of the enzyme are added to each well, followed by 20µl of buffer containing 25µM of the substrate and 1µM of ATP. […] Following a half-hour incubation at 30° C., the enzymatic reaction is stopped with 40µl of the kinase-Glo® reagent. The luminescence is measured after ten minutes, using a POLARstar Optima multimode reader. The activity is proportional to the difference between the total ATP and the ATP consumed. The inhibitory activities were calculated as a function of the maximum activity, measured in the absence of inhibitor.

GSK-3β [2] = type: biochemical, human
Description: The ATP concentrations were varied from 1 to 50 µM, whereas the concentration of the GS-2 peptide was kept constant at 12.5 µM. The concentrations of inhibitor (compound 6) used are shown in the plot.
The kinetic studies conducted by varying the ATP concentration from 1 to 50µM, and the concentration of inhibitor 6 from 5 to 10µM, were performed using the ADP-Glo™ Kinase Assay.

GSK-3β [3] = assay: Study of the inhibition of GSK-3β as a function of enzyme-inhibitor pre-incubation time; type: biochemical, human
Description: In order to determine the binding mode of these compounds, different kinetic studies were performed, varying the reaction times and the ATP concentration and the substrate concentration.

GSK-3β [4] = type: biochemical, human; remark: listed apart in the source
Description: The GS-2 concentrations were varied from 15.5 to 100 µM, whereas the ATP concentration was kept constant at 1 µM. The concentrations of inhibitor (compound 6) used are shown in the plot.
On the other hand, we also studied the dependence of GSK-3β activity in the presence of these inhibitors as a function of the concentration of the substrate, the GS-2 peptide, used in the assays.

[5] = GS-2 15.5 to 100 μM, ATP 1 μM, inhibitor 5 to 10 μM

Row | SMILES | IC50 [1] [µM] | Michaelis-Menten constant (Km) in the presence of the inhibitor (GSK-3β [2]) | mode of inhibition with respect to ATP (GSK-3β [2]; ATP 1 to 50 μM, GS-2 12.5 μM, inhibitor 5 to 10 μM) | maximum enzyme activity (Vmax) in the presence of the inhibitor (GSK-3β [2]; ATP 1 to 50 μM, inhibitor 5 to 10 μM) | % inhibition of GSK-3β (GSK-3β [3]; [Comp. 6] 5 μM, pre-incubation time E + I 0 min) [%] | % inhibition of GSK-3β (GSK-3β [3]; [Comp. 6] 5 μM, pre-incubation time E + I 5 min) [%] | % inhibition of GSK-3β (GSK-3β [3]; [Comp. 6] 5 μM, pre-incubation time E + I 10 min) [%] | % inhibition of GSK-3β (GSK-3β [3]; [Comp. 6] 10 μM, pre-incubation time E + I 0 min) [%] | % inhibition of GSK-3β (GSK-3β [3]; [Comp. 6] 10 μM, pre-incubation time E + I 5 min) [%] | % inhibition of GSK-3β (GSK-3β [3]; [Comp. 6] 10 μM, pre-incubation time E + I 10 min) [%] | reversibility of GSK-3β inhibition (GSK-3β [3]; different enzyme incubation times, two inhibitor concentrations) | Michaelis-Menten constant (Km) in the presence of the inhibitor (GSK-3β [4]) | maximum enzyme activity (Vmax) in the presence of the inhibitor (GSK-3β [4]; [5]) | mode of inhibition with respect to substrate GS-2 (GSK-3β [4]; [5])
1 | CCCCCCCCCCCC(=O)N(Cc1ccccc1)NC(=O)c1c(O)c2ccccc2n(Cc2ccccc2)c1=O [Compound 63, N′,1-Dibenzyl-N′-dodecanoyl-4-hydroxy-2-oxo-1,2-dihydroquinoline-3-carbohydrazide] | 6.84 ± 0.51 |  |  |  |  |  |  |  |  |  |  |  |  | 
2 | CCCCCCCCCCCC(=O)NNC(=O)c1c(O)c2ccccc2n(C)c1=O [Compound 4, N′-Dodecanoyl-4-hydroxy-1-methyl-2-oxo-1,2-dihydroquinoline-3-carbohydrazide] | 7.35 ± 0.23 |  |  |  |  |  |  |  |  |  |  |  |  | 
3 | CCCCCCCCCCCC(=O)NNC(=O)c1c(O)c2ccccc2n(CC)c1=O [Compound 6, N′-Dodecanoyl-1-ethyl-4-hydroxy-2-oxo-1,2-dihydroquinoline-3-carbohydrazide] |  | remains invariable | non-ATP-competitive inhibitor | decreases | 27.42 | 30.31 | 30.18 | 61.4 | 63.04 | 62.26 | reversible inhibitor | remains invariable | decreases | substrate-non-competitive inhibitor
